Peptide text beside a SMILES is read from it.
Legend:
human T1R2 ATD [1] = target: T1, human T1R2 ATD (Homo sapiens, UniProt Q8TE23); assay: Circular dichroism (CD) spectroscopy of ligand binding, human T1R2 ATD; conditions: for Kd: measured by CD, 25 °C, 4.5 μM ATD protein, nonlinear regression at fixed wavelength; for change in CD profile / ellipticity upon ligand addition: His-hT1R2 ATD, 209 and 219 nm
T1 construct: or Ser25-Thr489 in the 8xHis-Tag; made in house
T1 sequence (Q8TE23 25-489): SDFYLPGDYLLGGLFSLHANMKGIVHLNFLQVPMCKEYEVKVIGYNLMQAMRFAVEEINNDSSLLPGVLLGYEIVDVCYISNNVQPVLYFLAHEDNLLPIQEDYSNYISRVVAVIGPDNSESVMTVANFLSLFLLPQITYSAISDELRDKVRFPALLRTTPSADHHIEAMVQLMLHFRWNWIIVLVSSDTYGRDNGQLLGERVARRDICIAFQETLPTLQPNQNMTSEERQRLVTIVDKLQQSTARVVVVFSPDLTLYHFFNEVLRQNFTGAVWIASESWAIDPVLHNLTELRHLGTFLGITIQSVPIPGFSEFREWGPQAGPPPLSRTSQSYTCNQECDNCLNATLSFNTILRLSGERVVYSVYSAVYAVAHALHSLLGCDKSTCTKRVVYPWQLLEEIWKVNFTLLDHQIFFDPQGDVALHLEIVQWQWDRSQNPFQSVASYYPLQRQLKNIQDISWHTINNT
Procedure: CD spectra were recorded at 25 °C on an Model 202SF circular dichroism spectrometer (Aviv, Lakewood, NY, USA) equipped with a Peltier temperature control. Samples were added to a 0.01 cm path length quartz cuvette with a concentration of the ATD (from human and mouse) of about 0.3 mg/mL (4.5 μM) in 10 mM Tris-HCl, 150 mM NaCl, 10% glycerol, pH 7.4. Data was collected every 1 nm with an averaging time of 5 s. The spectral bandwidth was 1 nm. Spectra were corrected for buffer and ligands contributions and converted to mean ellipticity in deg cm^2·dmol^−1. The content of α-helix was computed using the deconvolution program from Chen et al.. […] The KD was calculated by analyzing CD data at a fixed wavelength versus ligand concentration using a nonlinear regression method (see Table 1). MSG was used as a negative control.

human T1R2 ATD [2] = target: T2, human T1R2 ATD (Homo sapiens, UniProt Q8TE23); assay: Saturation transfer difference NMR (STD-NMR) binding assay; conditions: neotame 3–10 mM at 27 °C; MSG at 7–37 °C
T2 construct: The human constructs ranged from residues Asn24-Met494 for human (ATD-hT1R2) in the SUMO fusion; His (N); TEV cleavage site (N); made in house
T2 sequence (Q8TE23 24-494): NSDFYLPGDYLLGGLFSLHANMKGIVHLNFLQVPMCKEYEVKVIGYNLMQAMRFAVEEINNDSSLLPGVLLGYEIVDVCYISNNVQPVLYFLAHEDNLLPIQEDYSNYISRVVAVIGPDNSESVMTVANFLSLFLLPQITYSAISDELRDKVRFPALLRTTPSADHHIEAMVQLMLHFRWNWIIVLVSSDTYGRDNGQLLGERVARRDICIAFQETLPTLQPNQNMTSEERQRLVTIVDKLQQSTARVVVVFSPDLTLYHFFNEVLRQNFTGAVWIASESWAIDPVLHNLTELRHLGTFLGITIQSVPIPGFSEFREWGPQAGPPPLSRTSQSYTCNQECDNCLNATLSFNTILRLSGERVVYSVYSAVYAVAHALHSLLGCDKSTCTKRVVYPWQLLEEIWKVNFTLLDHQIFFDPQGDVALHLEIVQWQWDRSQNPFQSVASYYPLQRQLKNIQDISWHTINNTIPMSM
Procedure: The ligand binding activity of ATD-T1R2 for all ligands was confirmed with a NMR-STD binding assay as previously described. Aliquots of the pure labeled SUMO-T1R2 protein were incubated with desired titrating ligands at 0.5–20 fold molar excess and concentrated to a final concentration of ~0.05 mM in 10 mM phosphate buffer (pH 7.4) containing 150 mM NaCl, 2.7 mM KCl, 5 mM DTT, 5x protease inhibitor (Roche) and 0.05% NaN3. Monosodium glutamate (MSG, non-sweet molecule) was used as a negative control. NMR data were collected on a VNMRS spectrometer (Varian, Palo Alto, CA, USA) operating at 800 MHz and equipped with a cryogenic probe. STD-NMR data collection and analysis was carried out as previously described.

mouse T1R2 ATD [3] = target: T3, mouse T1R2 ATD (Mus musculus, UniProt Q925I4); assay: Intrinsic fluorescence spectroscopy, mouse T1R2 ATD; format: binding; conditions: excitation 280 nm
T3 construct: The mouse 8xHis-Tev-ATD-mT1R2 construct ranged from residues Gly2-Pro466; made in house
T3 sequence (Q925I4 2-465 limits assumed): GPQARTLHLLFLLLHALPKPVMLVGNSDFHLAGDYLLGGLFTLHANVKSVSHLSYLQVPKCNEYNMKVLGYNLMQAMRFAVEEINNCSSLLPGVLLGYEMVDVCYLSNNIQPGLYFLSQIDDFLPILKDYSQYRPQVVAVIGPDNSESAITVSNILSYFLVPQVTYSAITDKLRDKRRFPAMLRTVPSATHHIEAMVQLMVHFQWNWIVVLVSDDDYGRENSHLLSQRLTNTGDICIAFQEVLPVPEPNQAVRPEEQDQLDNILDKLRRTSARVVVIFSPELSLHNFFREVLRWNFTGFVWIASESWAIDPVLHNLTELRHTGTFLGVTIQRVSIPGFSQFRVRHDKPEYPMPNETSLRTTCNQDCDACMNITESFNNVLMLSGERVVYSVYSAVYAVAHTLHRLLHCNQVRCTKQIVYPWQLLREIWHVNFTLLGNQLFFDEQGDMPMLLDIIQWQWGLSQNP
Procedure: (§1) Samples were prepared in the same way as for the CD experiments. Experiments were performed at 25 °C on Carey Eclipse instrument (Agilent, Santa Clara, CA, USA). Spectra were subtracted from the buffer ± ligand backgrounds for presentation. The curves at 340 nm were the best fits of the data obtained by a regression method using Microsoft Excel software (Microsoft, Redmont, WA, USA).

mouse T1R2 ATD [4] = target: T3, mouse T1R2 ATD; assay: Circular dichroism (CD) spectroscopy of ligand binding, mouse T1R2 ATD; conditions: mouse His-T1R2 ATD, saturating concentrations (neotame up to 500 μM)
Procedure: Data was collected every 1 nm with an averaging time of 5 s. The spectral bandwidth was 1 nm. Spectra were corrected for buffer and ligands contributions and converted to mean ellipticity in deg cm^2·dmol^−1. The content of α-helix was computed using the deconvolution program from Chen et al.. […] The KD was calculated by analyzing CD data at a fixed wavelength versus ligand concentration using a nonlinear regression method (see Table 1). MSG was used as a negative control.

human T1R2 ATD [5] = target: T1, human T1R2 ATD; assay: Intrinsic fluorescence spectroscopy, human T1R2 ATD; format: binding; conditions: excitation 280 nm; for change in intrinsic fluorescence intensity: human T1R2 ATD, ligand 0–64 μM
Procedure: as §1

Compound | Kd (human T1R2 ATD [1]) [µM] | STD signal / binding (human T1R2 ATD [2]) | change in intrinsic fluorescence intensity (mouse T1R2 ATD [3]) | change in ellipticity upon ligand addition (mouse T1R2 ATD [4]) | change in CD profile / ellipticity upon ligand addition (human T1R2 ATD [1]) | change in intrinsic fluorescence intensity (human T1R2 ATD [5]) | EC50 (human T1R2 ATD [5]; h-T1R2 ATD, signal at 336 nm, read-out: ligand concentration at half of the maximal value of fluorescence change) [µM] | EC50 (mouse T1R2 ATD [3]; signal at 336 nm, read-out: half-maximal value of fluorescence intensity decrease) [µM]
CC1=CC(=O)NS(=O)(=O)O1 [Acetasulfame] | 100 | – | – | – | – | – | – | –
COC(=O)[C@H](Cc1ccccc1)NC(=O)[C@@H](N)CC(=O)O [Aspartame] (HELM PEPTIDE1{D.F.[CO[*:1]]}$$$$V2.0) | > 300 | – | – | – | – | – | – | –
N[C@H](Cc1c[nH]c2ccccc12)C(=O)O [D-Tryptophan] | 500 | – | – | – | – | – | – | –
N[C@@H](CCC(=O)O)C(=O)[O-].[Na+] [MSG, monosodium glutamate] | – | no STD signal | did not change the intrinsic fluorescence intensity | no change in ellipticity | no change | no change in intrinsic fluorescence intensity | – | –
OC[C@H]1O[C@H](O[C@]2(CCl)O[C@H](CCl)[C@@H](O)[C@@H]2O)[C@H](O)[C@@H](O)[C@H]1Cl [Sucralose] | 40 | – | – | – | – | decreasing fluorescence intensity | 5 | –
OC[C@H]1O[C@@](CO)(O[C@H]2O[C@H](CO)[C@@H](O)[C@H](O)[C@H]2O)[C@@H](O)[C@@H]1O [Sucrose] | 40 | – | decrease in the fluorescence intensity | small decrease in ellipticity | small decrease in ellipticity | did not change the fluorescence intensity | – | 8
